How the values were obtained:
[1] = system: macrophage cell line J774; experiment: Bioactivity: J774 macrophages on matrigel attached with TNFα-CSG; type: cell-based; settings: 0.1 mmol on matrigel, 1 to 16 hrs
Description: Bioactivity of TNFα-CSG was assessed in vitro, specifically by incubating macrophage cell, line, J774, on matrigel attached with TNFα-CSG (0.1 mmol).

RIP-Tag insulinoma [2] = experiment: Tumour ECM content (collagen-1, laminin, nidogen-1); type: in vivo, mice; settings: 2 μg or 5 μg i.v. daily for five days
Description: As evidenced by analysis of the ECM components collagen-1, laminin and nidogen-1, intravenous injection of TNFα-CSG at a dose of 2 μg or 5 μg daily for five days to mice having a RIP-Tag insulinoma, specifically reduces tumour ECM content (FIG. 9).

[3] = system: RIP-Tag insulinoma and hepatocellular carcinoma; experiment: In vivo binding specificity of fluorescein-labelled TNFα-CSG and native TNFα; set-up: species or system mice; settings: 130 μg i.v., 30 min circulation
Description: Binding specificity of TNFα-CSG to tumours in vivo was assessed by detecting fluorescein-labelled TNFα-CSG and native unconjugated TNFα following 130 μg intravenous injection (30 min circulation).

hepatocellular carcinoma = experiment: Immune cell infiltration in hepatocellular carcinoma (FACS); type: in vivo, mice; settings: 2 μg daily i.v. for 5 days, healthy livers
Description: Mice bearing hepatocellular carcinoma at 10 weeks of age were treated with 2 μg TNFα-CSG or control CSG peptide (in 100 μL) by daily intravenous injection for 5 days. The experiment was also conducted on mice with normal, healthy livers, FACS quantification of CD4+ and CD8+ T cells and infiltrating macrophages (CD11b+/CD68+) in whole tumours is shown in FIG. 7. Quantitative analysis of these tumours show at least 3 fold increase in immune cell infiltration compared to CSG-treated tumours (P<0.05).

4T1 tumours = experiment: Tumour clearance, whole microscopic images of 4T1 tumours; type: in vivo, mice; settings: 10 μg for five days
4T1 breast carcinoma [4] = experiment: Tumour uptake of doxorubicin-micelles; type: in vivo, mice; settings: 2 μg i.v. daily for 5 days, then 100 μL of 1 mM doxorubicin-micelles
Description: 4T1 breast carcinoma-bearing mice were treated with 2 μg TNFα-CSG or CSG control, peptide by intravenous injection, daily for 5 days. Mice were then injected with 100 μL of 1 mM doxorubicin-micelles (200 nm in size) and tissues including tumours, spleen and liver were collected for analysis.

RIP-Tag insulinoma [5] = experiment: Immune cell infiltration in RIP-Tag insulinoma (immunofluorescence); type: in vivo, mice; settings: 2 and 5 μg daily i.v. for 5 days, vs control groups
Description: Mice bearing RIP-Tag insulinoma at 25 weeks of age were treated with 2 and 5 μg TNF60 -CSG (in 100 μL) by daily intravenous injection for 5 days. FIG. 6 presents microscopic evaluation of CD4+ and CD8+ T cells and circulatory CD11b macrophages detected by immunofluorescence staining of tissue cross sections.

insulinoma = experiment: Tumour uptake of iron oxide micelles (MRI); type: in vivo, mice; settings: 2 μg dose daily for five days; 6 hr circulation
Description: Reduced tumour ECM and stiffness, as well as improved perfusion was also shown to result in enhanced tumour uptake of a nano-imaging contrast agent. Specifically, insulinoma-bearing mice were treated with 2-10 μg TNFα-CSG or CSG control peptide by intravenous infection daily for five days. Following this, mice were intravenously injected with 100 μL of 1 mM iron oxide (IO) micelles (30 nm diameter). Tumours were harvested after 6 hr circulation and imaged by MRI and microscopic analysts of tissues mounted in 2% agarose. […] This accumulation was confirmed by immunostaining analysis of tissue cross sections using anti-FITC antibody.

4T1 breast carcinoma [6] = experiment: Immune cell infiltration in 4T1 breast carcinoma (FACS); type: in vivo, mice; settings: 2 μg daily i.v. for 5 days
From the text: Dextran coated iron oxide encapsulated with 18:0 PEG2000 PE micelle formulation and doxorabicin-micelles were made in the laboratory. 4T1 murine breast carcinoma is an orthotopic implant model by inoculating of 5×10^5 cells in die mammary fat pad of syngeneic BALB/c mice. RIP1-TagS insulinoma model (on C3H background) contains the oncogene SV40 Large T antigen (Tag; RIP, rat insulin gene promoter) that is exclusively expressed in β cells of the pancreas resulting in pancreatic tumours of neuroendocrine origin. ALB-Tag HOC (in C3H background) contains the oncogene SV40 Large T antigen (Tag) that is exclusively expressed in hepatocytes under the control of the albumin (ALB) promoter, resulting in rapid (non-metastatic) HCC tumour progression.
Mice bearing 4T1 breast carcinoma, when tumour size reached 500 mm^3, were treated with 0.5 and 2 μg TNFα-CSG or native TNFα (in 100 μL) by daily intravenous injection for 5 days. FACS quantification of CD4+ and CD8+ T cells and infiltrating macrophages (CD11b+/CD68+/F4/80+) harvested in whole tumours is presented in FIG. 5.
As noted in Example 2, native TNFα at 2 μg is toxic (all mice died after receiving 2 doses of 2 μg TNFα). A lower dose of native TNFα (0.5 μg) is not effective compared to 0.5 μg TNFα-CSG (FIG. 5).

[7] = system: 4T1 breast carcinoma and RIP-Tag insulinoma; experiment: Tumour stiffness by optical coherence tomography/micro-elastography; type: in vivo, mice; settings: 2 μg/day × 4 total injections
advanced insulinoma = experiment: Survival of mice bearing advanced insulinoma; type: in vivo; settings: 5 μg daily i.v. for five days at 24 weeks of age
Description: Survival studies were conducted using mice bearing advanced insulinoma, at 24 weeks of age, treated with 5 μg TNFα-CSG or 0.8 μg CSG daily for five days by intravenous injection.

[8] = system: RIP-Tag insulinoma and 4T1 breast carcinoma; experiment: Tumour vessel perfusion (CD31:lectin ratio); type: in vivo, mice; settings: 2 μg/day × 5
Description: The inventors then evaluated vessel perfusion in RIP-Tag insulinoma and 4T1. breast carcinoma from mice treated with TNFα-CSG (2 μg/day×5), as measured by CD31:lectin ratio following 10 min intravenous circulation of tomato green lectin.

4T1 breast tumours = experiment: Secondary metastasis of 4T1 breast tumours; type: in vivo, mice; settings: 10 μg daily i.v., up to eight injections
Description: 4T1cells in blood, lung, liver and lymph nodes were harvested once the primary tumours reached 2,000 mm^3. Cell suspensions from these tissues were cultured in 6-thioguanine-containing media to select for 4T1 cells that are resistant to 6-thioguanine. Colonic metastasis of methylene blue stained cells were counted. It is known that the lung is the primary site of metastasis of breast tumours. […] Similarly, the colonic metastasis counts in liver and lymph nodes were lower in the TNFα-CSG treated group.

## TNFα-CSG: Mature murine TNFα (SEQ ID NO:6) with C-terminal conjugated peptide CSGRRSSKC connected via a GGG linker; recombinant fusion protein
[1]
  protease secretion by J774 cells: secretion of MMP-2 and MMP-9
RIP-Tag insulinoma [2]
  ECM content in normal pancreas: remained unaltered
  tumour ECM content (collagen-1, laminin, nidogen 1, excluding basement membrane): significant reduction in ECM content
[3]
  binding to tumour tissue in vivo: specifically targeted
[3]; normal tissues
  binding to normal tissues in vivo: limited binding to normal pancreas, liver, heart, and kidney
Hepatocellular carcinoma
  effect on immune cell infiltration in normal liver: no effect on normal liver
4T1 tumours
  tumour clearance (hypoxia marker staining): large areas at the centre of the tumour devoid of tumour cells
4T1 breast carcinoma [4]
  doxorubicin (autofluorescence) in treated tumours: strong traces of doxorubicin
RIP-Tag insulinoma [5]
  immune cell infiltration (CD4+, CD8+ T cells, CD11b macrophages): significant increase in immune cell infiltration
insulinoma
  accumulation of FITC-labelled IO micelles in tumours (MRI T2* and T2 relaxation): increased accumulation of FITC-labelled IO micelles
  loss of signal (T2 relaxation time): significantly lower
4T1 breast carcinoma [6]
  increase in immune cell infiltration (CD4+, CD8+ T cells, macrophages): most effective
[7]
  tumour stiffness: below 100 kPa
[7]; frequency distribution
  tissue stiffness (stiffness >100 kPa) and stiffness variance: significantly reduced
Advanced insulinoma
  survival compared to CSG-treated mice: significantly enhanced
[8]
  vessel width vs control treated tumours: significantly wider
[8]; 10 min i.v. circulation of lectin
  CD31:lectin ratio: ~1
4T1 breast tumours
  hypoxia in primary tumours: significantly reduced hypoxia
  lung metastasis (cell density/tissue): significantly reduced lung metastasis
  metastatic colony counts in liver and lymph nodes: lower
  tumour centre: enlarged tumour centres that were cleared of tumour burden

From patent US20190022239A1, “NOVEL BIOMOLECULE CONJUGATES AND USES THEREFOR” (The University of Western Australia, priority 2016, published 2019)
